This is an account of results in the supplement of paper PMC11061612.

Experiment in all cases: Bliss excess, mean over the matrix (fraction); higher = more synergy
Assay [1] relates to DEL (T-Cell Non-Hodgkin's Lymphoma). The essentials: (§1)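 After 24 hours at 37°C and 5% CO2 in 1536-well plates, cells in DMEM/F12 or RPMI plus 10% FBS received two-drug dose matrices for 72 hours. Viability came from CellTiter-Glo 2.0 luminescence and was scaled as inhibition, anchored at 0 by vehicle wells and at 1 by blank wells. Combination Emax is taken as the second-highest inhibition in the matrix, and Bliss excess as the observed combination effect less EA + EB − EA·EB, with EA and EB the single-agent effects.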

Assay [2] concerns KURAMOCHI (Ovarian Carcinoma). An outline of the steps:
as §1

Assay [3] has as its system CaR-1 (Colorectal Carcinoma). The essentials:
as §1

For another assay, the system named is NB10 (Neuroblastoma). The essentials:
as §1

In assay [4] the test system is Calu-3 (Lung Adenocarcinoma). The essentials: as §1
Assay [5] relates to DoTc2-4510 (Cervical Carcinoma). The essentials:
as §1

Assay [6] deals with TE-9 (Esophageal Squamous Cell Carcinoma). The essentials:
as §1

For assay [7], the system named is HuP-T4 (Pancreatic Carcinoma). An outline of the steps: as §1
A further assay deals with 42-MG-BA (Glioblastoma). An outline of the steps: as §1
Assay [8] relates to MDA-MB-361 (Breast Carcinoma). An outline of the steps:
as §1

Assay [9] has as its system TCCSUP (Bladder Carcinoma). An outline of the steps:
as §1

In assay [10] the test system is TE-15 (Esophageal Squamous Cell Carcinoma). The essentials:
as §1

The test system of assay [11] is Daoy (Other Solid Carcinomas). The essentials:
as §1

Assay [12] deals with HT-1376 (Bladder Carcinoma). The essentials: as §1
The next assay has as its system NOS-1 (Osteosarcoma). An outline of the steps: as §1
A further assay concerns AGS (Gastric Carcinoma). The essentials: as §1
In assay [13] the test system is COLO-205 (Colorectal Carcinoma). The essentials:
as §1

The test system of assay [14] is HO-1-N-1 (Oral Cavity Carcinoma). An outline of the steps:
as §1

For assay [15], the system named is NCI-H2085 (Non-Small Cell Lung Carcinoma). An outline of the steps:
as §1

Assay [16] deals with UM-UC-3 (Bladder Carcinoma). The essentials: as §1

Turning to `CN(C)CCCOc1ccc(-c2ccc3ncc4c(c3c2)n(C2CCOCC2)c(=O)n4C)cn1` [AZD0156] + C=CCn1c(=O)c2cnc(Nc3ccc(N4CCN(C)CC4)cc3)nc2n1-c1cccc(C(C)(C)O)n1 [AZD1775] (first compound max 1 µM, partner max 1 µM), the Bliss excess in [1] was -0.0036; in [2], -0.031; in assay [3], -0.0445; in the assay on NB10 (Neuroblastoma), -0.0093; in [4] it was -0.0378; in assay [5], -0.0204. Moreover, the Bliss excess in [6] is -0.0422; in [7], -0.022; with 42-MG-BA (Glioblastoma), 0.0275; in [8], -0.006; in [9], -0.0651; in assay [10], -0.0705. Moreover, the Bliss excess was -0.0151 in assay [11]; -0.134 in assay [12]; -0.0113 with NOS-1 (Osteosarcoma); -0.0517 in the assay on AGS (Gastric Carcinoma); -0.0229 in assay [13]; -0.012 in [14]. For the same molecule, the Bliss excess in assay [15] was -0.0406; in assay [16], -0.007.
Consider `CN(C)CCCOc1ccc(-c2ccc3ncc4c(c3c2)n(C2CCOCC2)c(=O)n4C)cn1` [AZD0156] + CCN(CCO)CCCOc1ccc2c(Nc3cc(CC(=O)Nc4cccc(F)c4)[nH]n3)ncnc2c1 [AZD2811] (first compound max 1 µM, 7x7, partner max 1 µM), for which the Bliss excess in [1] was 0.117; in [2], -0.0357; in assay [3] it was -0.0097; with NB10 (Neuroblastoma) it was -0.0464; in assay [4] it was -0.0295; in assay [5] it was -0.0111. The Bliss excess is -0.0214 in assay [6]; -0.005 in assay [7]; 0.0813 in the assay on 42-MG-BA (Glioblastoma); -0.0078 in assay [8]; -0.0589 in assay [9]; -0.0382 in assay [10]. The Bliss excess was 0.0069 in assay [11]; -0.0665 in assay [12]; -0.0114 in the assay with NOS-1 (Osteosarcoma); -0.0047 in the assay on AGS (Gastric Carcinoma); 0.0035 in [13]; 0.0056 in [14]. Moreover, the Bliss excess in [15] was -0.0194; in assay [16], -0.0079.
Consider `CN(C)CCCOc1ccc(-c2ccc3ncc4c(c3c2)n(C2CCOCC2)c(=O)n4C)cn1` [AZD0156] + C[C@@H]1COCCN1C2=NC(=NC(=C2)C3(CC3)[S@](=N)(=O)C)C4=C5C=CNC5=NC=C4 [AZD6738] (first compound max 1 µM, 7x7, partner max 10 µM), for which the Bliss excess in assay [1] was 0.0293; in assay [2], -0.0119; in assay [3], -0.0449; in the assay on NB10 (Neuroblastoma) it was -0.038; in assay [4], -0.0205; in assay [5], 0.0037. In addition, the Bliss excess in assay [6] was -0.0034; in assay [7], 0.0118; with 42-MG-BA (Glioblastoma), 0.0224; in assay [8] it was 0.0366; in assay [9] it was -0.0255; in assay [10] it was -0.0283. Moreover, the Bliss excess in assay [11] was 0.0287; in [12], -0.0193; in the assay on NOS-1 (Osteosarcoma), -0.0241; in the assay on AGS (Gastric Carcinoma), 0.0232; in assay [13], -0.0057; in assay [14], -0.0101. For the same molecule, the Bliss excess in assay [15] was determined as 0.0274; in assay [16], 0.0101.
For the molecule `CN(C)CCCOc1ccc(-c2ccc3ncc4c(c3c2)n(C2CCOCC2)c(=O)n4C)cn1` [AZD0156] + O=C(c1cc(Cc2n[nH]c(=O)c3ccccc23)ccc1F)N1CCN(C(=O)C2CC2)CC1 [Olaparib] (first compound max 3 µM, partner max 3 µM), the Bliss excess is 0.312 in assay [1]; -0.0737 in assay [2]; -0.0014 in assay [3]; 0.334 in the assay on NB10 (Neuroblastoma); -0.0153 in assay [4]; -0.043 in assay [5]. Besides, the Bliss excess in assay [6] stood at 0.109; in assay [7], 0.125; with 42-MG-BA (Glioblastoma) it was 0.0602; in assay [8], 0.0254; in [9] it was 0.0405; in assay [10], 0.0576. For the same molecule, the Bliss excess was 0.0714 in [11]; -0.0417 in [12]; 0.0594 in the assay with NOS-1 (Osteosarcoma); 0.0736 in the assay with AGS (Gastric Carcinoma); 0.125 in assay [13]; 0.0618 in [14]. The Bliss excess in assay [15] was found to be 0.0267; in [16] it was 0.0739.
As for `C=CCn1c(=O)c2cnc(Nc3ccc(N4CCN(C)CC4)cc3)nc2n1-c1cccc(C(C)(C)O)n1` [AZD1775] + C1CN(CCC1(C(=O)N[C@@H](CCO)C2=CC=C(C=C2)Cl)N)C3=NC=NC4=C3C=CN4 [Capivasertib] (first compound max 3 µM, partner max 3 µM), the Bliss excess was 0.0666 in [1]; -0.072 in assay [2]; 0.0453 in assay [3]; -0.18 in the assay on NB10 (Neuroblastoma); -0.0761 in assay [4]; 0.0408 in assay [5]. Also, the Bliss excess in assay [6] is -0.002; in assay [7], -0.0779; in the assay on 42-MG-BA (Glioblastoma), -0.0419; in [8], -0.0156; in assay [9] it was 0.0046; in [10], 0.0494. Further, the Bliss excess in [11] was -0.0474; in assay [12] it was 0.0513; in the assay on NOS-1 (Osteosarcoma), 0.0118; in the assay with AGS (Gastric Carcinoma) it was 0.0159; in [13], 0.102; in assay [14] it was 0.0595. Also, the values for the Bliss excess in [15] and in assay [16] were 0.0047 and 0.0405, respectively.
As for `C=CCn1c(=O)c2cnc(Nc3ccc(N4CCN(C)CC4)cc3)nc2n1-c1cccc(C(C)(C)O)n1` [AZD1775] + C[C@@H]1COCCN1C2=NC(=NC(=C2)C3(CC3)[S@](=N)(=O)C)C4=C5C=CNC5=NC=C4 [AZD6738] (first compound max 1 µM, partner max 10 µM), the Bliss excess is 0.0252 in assay [1]; -0.0355 in assay [2]; 0.0177 in [3]; 0.0822 with NB10 (Neuroblastoma); -0.0181 in [4]; 0.0479 in assay [5]. Also, the Bliss excess in assay [6] is 0.0638; in assay [7] it was 0.0849; with 42-MG-BA (Glioblastoma), 0.0384; in assay [8], -0.0113; in assay [9] it was 0.0305; in assay [10], -0.0076. The Bliss excess in assay [11] is 0.0863; in [12], -0.0483; in the assay with NOS-1 (Osteosarcoma) it was 0.0735; with AGS (Gastric Carcinoma), 0.113; in [13], 0.141; in [14], 0.0456. For the same molecule, the figures for the Bliss excess in [15] and in assay [16] were 0.0147 and 0.0606, respectively.
`C=CCn1c(=O)c2cnc(Nc3ccc(N4CCN(C)CC4)cc3)nc2n1-c1cccc(C(C)(C)O)n1` [AZD1775] + O=C(c1cc(Cc2n[nH]c(=O)c3ccccc23)ccc1F)N1CCN(C(=O)C2CC2)CC1 [Olaparib] (first compound max 1 µM, partner max 10 µM): the Bliss excess in assay [1] is 0.0023; in assay [2] it was -0.0358; in [3], -0.0077; with NB10 (Neuroblastoma), -0.0088; in assay [4], -0.0243; in [5], -0.0634. Also, the Bliss excess in [6] was -0.0271; in assay [7] it was 0.0075; in the assay with 42-MG-BA (Glioblastoma), 0.0093; in [8], -0.0357; in assay [9], 0.0107; in assay [10], -0.106. Moreover, the Bliss excess in [11] is 0.044; in assay [12], -0.0509; with NOS-1 (Osteosarcoma), 0.0285; in the assay on AGS (Gastric Carcinoma) it was 0.0116; in [13], -0.0149; in assay [14], 0.0217. In addition, the values for the Bliss excess in [15] and in assay [16] were -0.0353 and 0.0251, respectively.
